Source: PubChem BioAssay (NCI)
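Cultured in 96-well plates, cells were exposed to test compound for 48 hours across five concentrations. TGI: concentration producing complete growth inhibition.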

Columns and labels:
Assay in all cases: inhibition of tumour cell growth, NCI panel, 48 h
HCT-15 colon = system: HCT-15 colon
T-47D breast = system: T-47D breast
UO-31 renal = system: UO-31 renal
UACC-62 melanoma = system: UACC-62 melanoma
SN12C renal = system: SN12C renal
A498 renal = system: A498 renal
MALME-3M melanoma = system: MALME-3M melanoma
MOLT-4 leukemia = system: MOLT-4 leukemia
NCI-H23 lung = system: NCI-H23 lung
SK-MEL-28 melanoma = system: SK-MEL-28 melanoma
LOX IMVI melanoma = system: LOX IMVI melanoma
SNB-75 CNS = system: SNB-75 CNS
SK-MEL-5 melanoma = system: SK-MEL-5 melanoma
UACC-257 melanoma = system: UACC-257 melanoma
SNB-19 CNS = system: SNB-19 CNS
OVCAR-4 ovarian = system: OVCAR-4 ovarian
SF-539 CNS = system: SF-539 CNS
HOP-62 NSCLC = system: HOP-62 NSCLC
SF-268 CNS = system: SF-268 CNS
M14 melanoma = system: M14 melanoma
OVCAR-8 ovarian = system: OVCAR-8 ovarian
NCI-H226 lung = system: NCI-H226 lung
KM12 colon = system: KM12 colon
RPMI-8226 leukemia = system: RPMI-8226 leukemia
MDA-MB-435 = system: MDA-MB-435
NCI/ADR-RES ovarian = system: NCI/ADR-RES ovarian
RXF 393 renal = system: RXF 393 renal
BT-549 breast = system: BT-549 breast
COLO 205 colon = system: COLO 205 colon
HCT-116 colon = system: HCT-116 colon
OVCAR-5 ovarian = system: OVCAR-5 ovarian
CCRF-CEM leukemia = system: CCRF-CEM leukemia
K-562 leukemia = system: K-562 leukemia
SK-OV-3 ovarian = system: SK-OV-3 ovarian
NCI-H460 lung = system: NCI-H460 lung
DU-145 prostate = system: DU-145 prostate
HL-60(TB) leukemia = system: HL-60(TB) leukemia
U251 CNS = system: U251 CNS
PC-3 prostate = system: PC-3 prostate
786-0 renal = system: 786-0 renal
HOP-92 NSCLC = system: HOP-92 NSCLC
CAKI-1 renal = system: CAKI-1 renal
ACHN renal = system: ACHN renal
OVCAR-3 ovarian = system: OVCAR-3 ovarian
A549 NSCLC = system: A549 NSCLC
MCF7 breast = system: MCF7 breast
SF-295 CNS = system: SF-295 CNS
TK-10 renal = system: TK-10 renal
SW-620 colon = system: SW-620 colon
SR leukemia = system: SR leukemia
IGROV1 ovarian = system: IGROV1 ovarian
EKVX NSCLC = system: EKVX NSCLC
NCI-H522 lung = system: NCI-H522 lung
SK-MEL-2 melanoma = system: SK-MEL-2 melanoma
HS 578T breast = system: HS 578T breast
MDA-N = system: MDA-N
HT29 colon = system: HT29 colon
MDA-MB-231 breast = system: MDA-MB-231 breast
HCC-2998 colon = system: HCC-2998 colon

Measured: TGI

CC(=O)OC1CCC2(C)C(=CCC3C2CCC2(C)C3CC3OC4(CCC(C)CN4)C(C)C32)C1 (stereo not drawn)
not listed: HCC-2998 colon
> 100 µM: all other assays above

CSc1cc(Cl)c(C(=O)Nc2ccccc2)cc1S(=O)(=O)n1cc[nH]c1=O
not listed: NCI-H226 lung | SF-295 CNS
> 100 µM: all other assays above

COc1ccc(/C=N/n2c(Cc3ccccc3)n[nH]c2=O)c(OC)c1
> 31.6 µM: COLO 205 colon
> 63.1 µM: UO-31 renal
> 59.6 µM: OVCAR-8 ovarian
> 61.4 µM: SF-295 CNS
28.6 µM: SNB-75 CNS
> 65.1 µM: U251 CNS
> 66 µM: A498 renal
> 92.5 µM: NCI-H460 lung
37.5 µM: HS 578T breast
> 63.2 µM: RXF 393 renal
> 59.8 µM: HOP-62 NSCLC
99.4 µM: EKVX NSCLC
> 69 µM: 786-0 renal
> 77.5 µM: SNB-19 CNS
> 64.5 µM: HT29 colon
84.1 µM: TK-10 renal
> 80.9 µM: NCI-H226 lung
86.5 µM: NCI/ADR-RES ovarian
> 62.7 µM: MDA-MB-231 breast
> 85.3 µM: LOX IMVI melanoma
47 µM: SF-268 CNS
> 75 µM: HOP-92 NSCLC
> 58.4 µM: A549 NSCLC
> 55.1 µM: HCT-116 colon
> 56.5 µM: ACHN renal
> 49 µM: BT-549 breast
> 60.7 µM: SK-OV-3 ovarian
> 65.4 µM: NCI-H23 lung
not listed: HL-60(TB) leukemia
> 100 µM: all other assays above
